# From patent US12473250B2, “Molecular design of new antibiotics and antibiotic adjuvants against MCR strains” (priority 2019, dated 2025)
# Experiments:
# various pathogens = experiment: organism not typed; assay type: cell-based
# Summary of the method: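 Broth microdilution MIC per CLSI: each agent alone and LC compound plus antibiotic (e.g. colistin) combined in equal amounts, serially diluted 2-fold at fixed synergy concentration.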
# [1] = tested on: ENT CLOACAE multi-drug resistant strains; experiment: MIC against multi-drug resistant strains (Table 5); assay type: cell-based, E. cloacae; settings: alone
# Summary of the method: (§1)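 Wells held ~5×10^5 CFU/mL of bacteria prepared to 0.5 McFarland from overnight TSA colonies and exposed to serially diluted agents, following modified CLSI microdilution. After 24 h at 35 °C, growth judged by turbidity (OD600 possible); 99% inhibition sets the MIC.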
# [2] = tested on: colistin resistant MCR (+) E. Coli strains; experiment: MIC, broth microdilution, compound alone; assay type: cell-based
# Summary of the method: as §1
substance,measurement,setting,value
Colistin,FOLD CHANGES [Absorbance (abs; OD 600 nm)] No Treatment [Bacteria alone]: MIC Colistin,various pathogens; E. Coli DB 16027R,14.89
same,MIC,various pathogens; E. Coli DB 16027R,0.78 µg/mL
same,FOLD CHANGES [Absorbance (abs; OD 600 nm)] No Treatment [Bacteria alone]: Colistin 0.5 μg,various pathogens; KLPN ATCC 4352,1.81
same,FOLD CHANGES [Absorbance (abs; OD 600 nm)] No Treatment [Bacteria alone]: MIC Colistin,various pathogens; KLPN ATCC 4352,3.54
same,MIC,various pathogens; KLPN ATCC 4352,0.78 µg/mL
same,FOLD CHANGES [Absorbance (abs; OD 600 nm)] No Treatment [Bacteria alone]: Colistin 0.5 μg,various pathogens; KLPN ATCC 10031,1.25
same,FOLD CHANGES [Absorbance (abs; OD 600 nm)] No Treatment [Bacteria alone]: MIC Colistin,various pathogens; KLPN ATCC 10031,10.11
same,MIC,various pathogens; KLPN ATCC 10031,1.56 µg/mL
same,FOLD CHANGES [Absorbance (abs; OD 600 nm)] No Treatment [Bacteria alone]: Colistin 0.5 μg,various pathogens; KLPN ATCC 27736,1.21
same,FOLD CHANGES [Absorbance (abs; OD 600 nm)] No Treatment [Bacteria alone]: MIC Colistin,various pathogens; KLPN ATCC 27736,9.67
same,MIC,various pathogens; KLPN ATCC 27736,0.78 µg/mL
same,FOLD CHANGES [Absorbance (abs; OD 600 nm)] No Treatment [Bacteria alone]: Colistin 0.5 μg,various pathogens; KLPN ATCC 35657,1.57
same,FOLD CHANGES [Absorbance (abs; OD 600 nm)] No Treatment [Bacteria alone]: MIC Colistin,various pathogens; KLPN ATCC 35657,13.49
same,MIC,various pathogens; KLPN ATCC 35657,1.56 µg/mL
same,FOLD CHANGES [Absorbance (abs; OD 600 nm)] No Treatment [Bacteria alone]: Colistin 0.5 μg,various pathogens; KLPN ATCC 700603,1.11
same,FOLD CHANGES [Absorbance (abs; OD 600 nm)] No Treatment [Bacteria alone]: MIC Colistin,various pathogens; KLPN ATCC 700603,9.64
same,MIC,various pathogens; KLPN ATCC 700603,1.56 µg/mL
same,FOLD CHANGES [Absorbance (abs; OD 600 nm)] No Treatment [Bacteria alone]: Colistin 0.5 μg,various pathogens; KLPN CRE 7955,1.64
same,FOLD CHANGES [Absorbance (abs; OD 600 nm)] No Treatment [Bacteria alone]: MIC Colistin,various pathogens; KLPN CRE 7955,10.28
same,MIC,various pathogens; KLPN CRE 7955,1.56 µg/mL
same,FOLD CHANGES [Absorbance (abs; OD 600 nm)] No Treatment [Bacteria alone]: Colistin 0.5 μg,various pathogens; KLPN CRE 15588,2.50
same,FOLD CHANGES [Absorbance (abs; OD 600 nm)] No Treatment [Bacteria alone]: MIC Colistin,various pathogens; KLPN CRE 15588,7.39
same,MIC,various pathogens; KLPN CRE 15588,0.78 µg/mL
same,FOLD CHANGES [Absorbance (abs; OD 600 nm)] No Treatment [Bacteria alone]: Colistin 0.5 μg,various pathogens; KLPN CRE 16260,1.06
same,MIC,various pathogens; KLPN CRE 16260,>50 µg/mL
same,FOLD CHANGES [Absorbance (abs; OD 600 nm)] No Treatment [Bacteria alone]: Colistin 0.5 μg,various pathogens; KLPN CRE 27025,5.24
same,FOLD CHANGES [Absorbance (abs; OD 600 nm)] No Treatment [Bacteria alone]: MIC Colistin,various pathogens; KLPN CRE 27025,11.84
same,MIC,various pathogens; KLPN CRE 27025,0.78 µg/mL
same,FOLD CHANGES [Absorbance (abs; OD 600 nm)] No Treatment [Bacteria alone]: Colistin 0.5 μg,various pathogens; KLPN CRE 55301,1.09
same,FOLD CHANGES [Absorbance (abs; OD 600 nm)] No Treatment [Bacteria alone]: MIC Colistin,various pathogens; KLPN CRE 55301,9.00
same,MIC,various pathogens; KLPN CRE 55301,0.78 µg/mL
same,FOLD CHANGES [Absorbance (abs; OD 600 nm)] No Treatment [Bacteria alone]: Colistin 0.5 μg,various pathogens; PAE ATCC 9027,0.98
same,FOLD CHANGES [Absorbance (abs; OD 600 nm)] No Treatment [Bacteria alone]: MIC Colistin,various pathogens; PAE ATCC 9027,8.80
same,MIC,various pathogens; PAE ATCC 9027,1.56 µg/mL
same,FOLD CHANGES [Absorbance (abs; OD 600 nm)] No Treatment [Bacteria alone]: Colistin 0.5 μg,various pathogens; PAE ATCC 9721,1.01
same,FOLD CHANGES [Absorbance (abs; OD 600 nm)] No Treatment [Bacteria alone]: MIC Colistin,various pathogens; PAE ATCC 9721,5.80
same,MIC,various pathogens; PAE ATCC 9721,1.56 µg/mL
same,FOLD CHANGES [Absorbance (abs; OD 600 nm)] No Treatment [Bacteria alone]: Colistin 0.5 μg,various pathogens; PAE ATCC 15442,1.03
same,FOLD CHANGES [Absorbance (abs; OD 600 nm)] No Treatment [Bacteria alone]: MIC Colistin,various pathogens; PAE ATCC 15442,14.00
same,MIC,various pathogens; PAE ATCC 15442,1.56 µg/mL
same,FOLD CHANGES [Absorbance (abs; OD 600 nm)] No Treatment [Bacteria alone]: Colistin 0.5 μg,various pathogens; PAE ATCC 27853,0.96
same,FOLD CHANGES [Absorbance (abs; OD 600 nm)] No Treatment [Bacteria alone]: MIC Colistin,various pathogens; PAE ATCC 27853,8.35
same,MIC,various pathogens; PAE ATCC 27853,0.78 µg/mL
same,FOLD CHANGES [Absorbance (abs; OD 600 nm)] No Treatment [Bacteria alone]: Colistin 0.5 μg,various pathogens; PAE ATCC BAA-1744,1.11
same,FOLD CHANGES [Absorbance (abs; OD 600 nm)] No Treatment [Bacteria alone]: MIC Colistin,various pathogens; PAE ATCC BAA-1744,6.81
same,MIC,various pathogens; PAE ATCC BAA-1744,1.56 µg/mL
same,FOLD CHANGES [Absorbance (abs; OD 600 nm)] No Treatment [Bacteria alone]: Colistin 0.5 μg,various pathogens; PAE DM 4150,1.02
same,FOLD CHANGES [Absorbance (abs; OD 600 nm)] No Treatment [Bacteria alone]: MIC Colistin,various pathogens; PAE DM 4150,10.34
same,MIC,various pathogens; PAE DM 4150,3.125 µg/mL
same,FOLD CHANGES [Absorbance (abs; OD 600 nm)] No Treatment [Bacteria alone]: Colistin 0.5 μg,various pathogens; PAE DM 23155,1.30
same,FOLD CHANGES [Absorbance (abs; OD 600 nm)] No Treatment [Bacteria alone]: MIC Colistin,various pathogens; PAE DM 23155,7.00
same,MIC,various pathogens; PAE DM 23155,1.56 µg/mL
same,FOLD CHANGES [Absorbance (abs; OD 600 nm)] No Treatment [Bacteria alone]: Colistin 0.5 μg,various pathogens; PAE DM 23257,1.02
same,FOLD CHANGES [Absorbance (abs; OD 600 nm)] No Treatment [Bacteria alone]: MIC Colistin,various pathogens; PAE DM 23257,7.71
same,MIC,various pathogens; PAE DM 23257,1.56 µg/mL
same,FOLD CHANGES [Absorbance (abs; OD 600 nm)] No Treatment [Bacteria alone]: Colistin 0.5 μg,various pathogens; PAE DM 23376,0.93
same,FOLD CHANGES [Absorbance (abs; OD 600 nm)] No Treatment [Bacteria alone]: MIC Colistin,various pathogens; PAE DM 23376,8.00
same,MIC,various pathogens; PAE DM 23376,1.56 µg/mL
same,FOLD CHANGES [Absorbance (abs; OD 600 nm)] No Treatment [Bacteria alone]: Colistin 0.5 μg,various pathogens; PAE DR 4877,1.30
same,FOLD CHANGES [Absorbance (abs; OD 600 nm)] No Treatment [Bacteria alone]: MIC Colistin,various pathogens; PAE DR 4877,12.00
same,MIC,various pathogens; PAE DR 4877,1.56 µg/mL
same,FOLD CHANGES [Absorbance (abs; OD 600 nm)] No Treatment [Bacteria alone]: Colistin 0.5 μg,various pathogens; PAE DR 5790,1.06
same,FOLD CHANGES [Absorbance (abs; OD 600 nm)] No Treatment [Bacteria alone]: MIC Colistin,various pathogens; PAE DR 5790,10.25
same,MIC,various pathogens; PAE DR 5790,0.78 µg/mL
same,FOLD CHANGES [Absorbance (abs; OD 600 nm)] No Treatment [Bacteria alone]: Colistin 0.5 μg,various pathogens; PAE DU 14476,0.90
same,FOLD CHANGES [Absorbance (abs; OD 600 nm)] No Treatment [Bacteria alone]: MIC Colistin,various pathogens; PAE DU 14476,7.21
same,MIC,various pathogens; PAE DU 14476,1.56 µg/mL
same,MIC,[1]; strain ENT CLOACAE 6780,1.56 µg/mL
same,MIC,[1]; strain ENT CLOACAE 21489,0.78 µg/mL
same,MIC,[1]; strain ENT CLOACAE 30063,>50 µg/mL
same,MIC,[1]; strain ENT CLOACAE 44095,>50 µg/mL
same,colistin MIC,[2]; colistin alone,more than 6 μg/ml
same,MIC,[2]; panel of colistin resistant strains,6.25 µg/mL
same,MIC,"[2]; strain 6075066346, MCR (+), compound alone",6.25 µg/mL
same,MIC,"[2]; strain 6083655967, MCR (+), compound alone",6.25 µg/mL
same,MIC,"[2]; strain 6103645107, MCR (+), compound alone",6.25 µg/mL
same,MIC,"[2]; strain 6123520276, MCR (+), compound alone",6.25 µg/mL
same,MIC,"[2]; strain 7013177695, MCR (+), compound alone",6.25 µg/mL
same,MIC,"[2]; strain 7023436560, MCR (+), compound alone",6.25 µg/mL
same,MIC,"[2]; strain 7023444207, MCR (+), compound alone",6.25 µg/mL
